Experimental data as given in patent publication US20240325398A1, “COMBINATION THERAPIES” (Infinity Pharmaceuticals, Inc., priority 2014, published 2024).

What was measured:
HH = test: Combination study, ATPLite 72 h, dose matrix (Synergy Score, CI50); type: cell-based; details: combination with Compound 1
Procedure: The method is described as follows.
Additive effect is CI=1.0. […] Antagonistic effect is CI>1.0.
The Synergy Score is calculated as: […]

HBL-1 = test: as above; details: combination with Compound 1, 72 h
Procedure: (§1) Cells are thawed from a liquid nitrogen preserved state. Once cells have been expanded and divide at their expected doubling times, screening begins. Cells are seeded in growth media in either black 1536-well or 384-well tissue culture treated plates. Cells are then equilibrated in assay plates via centrifugation and placed in incubators attached to the Dosing Modules at 37° C. for 24 hours before treatment. […] These Tzero (To) plates are read using ultra-sensitive luminescence on Envision plate readers (Perkin Elmer). Treated assay plates are incubated with compound for 72 hours. After 72 hours, plates are developed for endpoint analysis using ATPLite. All data points are collected via automated processes, quality controlled and analyzed using Zalicus software.
(§2) where T is treated cell count and V is untreated (vehicle) cell count (at 72 hours). I ranges from 0% (when T=V) to 100% (when T=0). […] The measure of effect in the experiment can be the inhibition of cellular response relative to the untreated level (vehicle alone). […] The inhibition ranges from 0% at the untreated level to 100% when T=0. Inhibition levels are negative for agents that actually increase levels. Other effect measures, such as an activity ratio r=T/V may be more appropriate for some assays. When activity ratios (e.g, fold increase over stimulated control) are being used, the effect can be measured using an induction 1=ln(T/V). With this definition, all effect expressions are the same as for inhibition.
(§3) Growth Inhibition (GI) is used as a measure of cell viability. […] A GI reading of 100% represents complete growth inhibition—T72 compound-treated and T0 vehicle signals are matched. […] A GI reading of 200% represents complete death of all cells in the culture well. Compounds reaching an activity plateau of GI 200% are considered cytotoxic. GI is calculated by applying the following test and equation:
(§4) Combination analysis data were collected in a 6×6 dose matrix. Synergy is calculated by comparing a combination's response to those of its single compound, against the drug-with-itself dose-additive reference model. Deviations from dose additivity may be assessed visually on an isobologram or numerically with a Combination Index (CI). […] Additive effect is CI=1.0. […] Antagonistic effect is CI>1.0.
(§5) To measure combination effects in excess of Loewe additivity, a scalar measure to characterize the strength of synergistic interaction termed the Synergy Score is devised. The Synergy Score is calculated as:
(§6) The fractional inhibition for each component agent and combination point in the matrix is calculated relative to the median of all vehicle-treated control wells. The Synergy Score equation integrates the experimentally-observed activity volume at each point in the matrix in excess of a model surface numerically derived from the activity of the component agents using the Loewe model for additivity. Additional terms in the Synergy Score equation (above) are used to normalize for various dilution factors used for individual agents and to allow for comparison of synergy scores across an entire experiment. The inclusion of positive inhibition gating or an Idata multiplier removes noise near the zero effect level, and biases results for synergistic interactions at that occur at high activity levels.
(§7) Loewe Volume (Loewe Vol) is used to assess the overall magnitude of the combination interaction in excess of the Loewe additivity model. Loewe Volume is particularly useful when distinguishing synergistic increases in a phenotypic activity (positive Loewe Volume) versus synergistic antagonisms (negative Loewe Volume). […] This model defines additivity as a non-synergistic combination interaction where the combination dose matrix surface should be indistinguishable from either drug crossed with itself. The calculation for Loewe additivity is:

OCI-Ly3 = test: as above; details: combination with Compound 1; OCI-Ly3; 72 h
U-2932 = test: as above; details: combination with Compound 1, 72 h
TMD8 = test: as above; details: combination with Compound 1; for CI50 growth inhibition / CI50 inhibition / Synergy Score growth inhibition / Synergy Score inhibition: TMD8, 72 h
OCI-Ly7 = test: as above; details: combination with Compound 1, 72 h
SU-DHL-4-epst = test: as above; details: combination with Compound 1, 72 h
DOHH-2 = test: as above; details: combination with Compound 1, 72 h
Farage = test: as above; details: combination with Compound 1; for CI50 growth inhibition / CI50 inhibition / Synergy Score growth inhibition / Synergy Score inhibition: Farage, 72 h
SU-DHL-10-epst = test: as above; details: combination with Compound 1, 72 h
Procedure: as §1
The measure of effect in the experiment can be the inhibition of cellular response relative to the untreated level (vehicle alone). […] The inhibition ranges from 0% at the untreated level to 100% when T=0. Inhibition levels are negative for agents that actually increase levels.
as §3, §4, §5, §6, §7

RL = test: as above; details: combination with Compound 1, 72 h
KARPAS-422 = test: as above; details: combination with Compound 1, 72 h
Procedure: as §1, §2, §3, §4, §5, §6
(§8) Loewe Volume (Loewe Vol) is used to assess the overall magnitude of the combination interaction in excess of the Loewe additivity model. Loewe Volume is particularly useful when distinguishing synergistic increases in a phenotypic activity (positive Loewe Volume) versus synergistic antagonisms (negative Loewe Volume). […] This model defines additivity as a non-synergistic combination interaction where the combination dose matrix surface should be indistinguishable from either drug crossed with itself.

WSU-NHL = test: as above; details: combination with Compound 1, 72 h
KARPAS-299 = test: as above; details: combination with Compound 1
Procedure: as §1, §2, §3, §4, §5, §6, §8

GRANTA-519 = test: as above; details: combination with Compound 1
Procedure: as §1, §2, §3, §4, §5, §6, §8

Jeko-1 = test: as above; details: combination with Compound 1
Mino = test: as above; details: combination with Compound 1
Procedure: as §1, §2, §3, §4, §5, §6, §8

NCI-H929 = test: as above; details: combination with Compound 1
[1] = as above; details: combination with Compound 1; OPM-2
OMP-2 = test: as above; details: combination with Compound 1; OPM-2
RPMI-8226 = test: as above; details: combination with Compound 1
Procedure: as §1, §2, §3, §4, §5, §6, §8

Compound: CO[C@H]1C[C@@H]2CC[C@@H](C)[C@@](O)(O2)C(=O)C(=O)N2CCCC[C@H]2C(=O)O[C@H]([C@H](C)C[C@@H]2CC[C@@H](OCCO)[C@H](OC)C2)CC(=O)[C@H](C)/C=C(\C)[C@@H](O)[C@@H](OC)C(=O)[C@H](C)C[C@H](C)/C=C/C=C/C=C/1C [everolimus, dihydroxy-12-[(2R)-1-[(1S,3R,4R)-4-(2-hydroxyethoxy)-3-methoxycyclohexyl]propan-2-yl]-19,30-dimethoxy-15,17,21,23,29,35-hexamethyl-11,36-dioxa-4-azatricyclo[30.3.1.0]hexatriaconta-16,24,26,28-tetraene-2,3,10,14,20-pentone]
- CI50 growth inhibition (HH): S (S=0.01 to <0.5)
- CI50 inhibition (HH): S (S=0.01 to <0.5)
- Synergy Score growth inhibition (HH): A3 (A3=>3)
- Synergy Score inhibition (HH): A2 (A2=1 to <3)
- CI50 growth inhibition (HBL-1): T (T=0.5 to <0.7)
- CI50 inhibition (HBL-1): U (U=0.7 to <1)
- Synergy Score growth inhibition (HBL-1): A2 (A2=1 to <3)
- Synergy Score inhibition (HBL-1): A1 (A1=0.0001 to <1)
- CI50 growth inhibition (OCI-Ly3): U (U=0.7 to <1)
- Synergy Score growth inhibition (OCI-Ly3): A2 (A2=1 to <3)
- Synergy Score inhibition (OCI-Ly3): A1 (A1=0.0001 to <1)
- CI50 growth inhibition (U-2932): S (S=0.01 to <0.5)
- Synergy Score growth inhibition (U-2932): A2 (A2=1 to <3)
- Synergy Score inhibition (U-2932): A2 (A2=1 to <3)
- CI50 growth inhibition (TMD8): T (T=0.5 to <0.7)
- CI50 inhibition (TMD8): S (S=0.01 to <0.5)
- Synergy Score growth inhibition (TMD8): A3 (A3=>3)
- Synergy Score inhibition (TMD8): A3 (A3=>3)
- effect of the combination (isobologram) (TMD8; TMD8 DLBCL cell line, FIG. 1-3): synergistic effect
- CI50 growth inhibition (OCI-Ly7): S (S=0.01 to <0.5)
- CI50 inhibition (OCI-Ly7): W (W=≥1)
- Synergy Score growth inhibition (OCI-Ly7): A2 (A2=1 to <3)
- Synergy Score inhibition (OCI-Ly7): A2 (A2=1 to <3)
- CI50 growth inhibition (SU-DHL-4-epst): S (S=0.01 to <0.5)
- CI50 inhibition (SU-DHL-4-epst): S (S=0.01 to <0.5)
- Synergy Score growth inhibition (SU-DHL-4-epst): A3 (A3=>3)
- Synergy Score inhibition (SU-DHL-4-epst): A3 (A3=>3)
- CI50 growth inhibition (DOHH-2): S (S=0.01 to <0.5)
- CI50 inhibition (DOHH-2): S (S=0.01 to <0.5)
- Synergy Score growth inhibition (DOHH-2): A3 (A3=>3)
- Synergy Score inhibition (DOHH-2): A3 (A3=>3)
- effect of the combination (isobologram) (Farage; Farage DLBCL cell line, FIG. 4-5): synergistic effect
- CI50 growth inhibition (Farage): T (T=0.5 to <0.7)
- CI50 inhibition (Farage): S (S=0.01 to <0.5)
- Synergy Score growth inhibition (Farage): A3 (A3=>3)
- Synergy Score inhibition (Farage): A3 (A3=>3)
- CI50 growth inhibition (SU-DHL-10-epst): S (S=0.01 to <0.5)
- CI50 inhibition (SU-DHL-10-epst): S (S=0.01 to <0.5)
- Synergy Score growth inhibition (SU-DHL-10-epst): A3 (A3=>3)
- Synergy Score inhibition (SU-DHL-10-epst): A3 (A3=>3)
- CI50 growth inhibition (RL): T (T=0.5 to <0.7)
- CI50 inhibition (RL): S (S=0.01 to <0.5)
- Synergy Score growth inhibition (RL): A2 (A2=1 to <3)
- Synergy Score inhibition (RL): A2 (A2=1 to <3)
- CI50 growth inhibition (KARPAS-422): W (W=≥1)
- CI50 inhibition (KARPAS-422): S (S=0.01 to <0.5)
- Synergy Score growth inhibition (KARPAS-422): A2 (A2=1 to <3)
- Synergy Score inhibition (KARPAS-422): A2 (A2=1 to <3)
- CI50 growth inhibition (WSU-NHL): T (T=0.5 to <0.7)
- CI50 inhibition (WSU-NHL): S (S=0.01 to <0.5)
- Synergy Score growth inhibition (WSU-NHL): A3 (A3=>3)
- Synergy Score inhibition (WSU-NHL): A3 (A3=>3)
- CI50 growth inhibition (KARPAS-299): U (U=0.7 to <1)
- CI50 inhibition (KARPAS-299): W (W=≥1)
- Synergy Score growth inhibition (KARPAS-299): A1 (A1=0.0001 to <1)
- Synergy Score inhibition (KARPAS-299): A1 (A1=0.0001 to <1)
- CI50 growth inhibition (GRANTA-519): S (S=0.01 to <0.5)
- Synergy Score growth inhibition (GRANTA-519): A2 (A2=1 to <3)
- Synergy Score inhibition (GRANTA-519): A1 (A1=0.0001 to <1)
- CI50 growth inhibition (Jeko-1): T (T=0.5 to <0.7)
- CI50 inhibition (Jeko-1): U (U=0.7 to <1)
- Synergy Score growth inhibition (Jeko-1): A2 (A2=1 to <3)
- Synergy Score inhibition (Jeko-1): A2 (A2=1 to <3)
- CI50 growth inhibition (Mino): T (T=0.5 to <0.7)
- CI50 inhibition (Mino): U (U=0.7 to <1)
- Synergy Score growth inhibition (Mino): A2 (A2=1 to <3)
- Synergy Score inhibition (Mino): A2 (A2=1 to <3)
- CI50 growth inhibition (NCI-H929): S (S=0.01 to <0.5)
- CI50 inhibition (NCI-H929): T (T=0.5 to <0.7)
- Synergy Score growth inhibition (NCI-H929): A3 (A3=>3)
- Synergy Score inhibition (NCI-H929): A2 (A2=1 to <3)
- CI50 growth inhibition [1]: S (S=0.01 to <0.5)
- CI50 inhibition (OMP-2): W (W=≥1)
- Synergy Score growth inhibition (OMP-2): A2 (A2=1 to <3)
- Synergy Score inhibition (OMP-2): A2 (A2=1 to <3)
- CI50 growth inhibition (RPMI-8226): U (U=0.7 to <1)
- CI50 inhibition (RPMI-8226): W (W=≥1)
- Synergy Score growth inhibition (RPMI-8226): A2 (A2=1 to <3)
- Synergy Score inhibition (RPMI-8226): A1 (A1=0.0001 to <1)

Compound: O=C(NOC[C@H](O)CO)c1ccc(F)c(F)c1Nc1ccc(I)cc1F [PD0325901]
- CI50 growth inhibition (HH): W (W=≥1)
- CI50 inhibition (HH): U (U=0.7 to <1)
- Synergy Score growth inhibition (HH): A2 (A2=1 to <3)
- Synergy Score inhibition (HH): A1 (A1=0.0001 to <1)
- CI50 growth inhibition (HBL-1): T (T=0.5 to <0.7)
- Synergy Score growth inhibition (HBL-1): A2 (A2=1 to <3)
- Synergy Score inhibition (HBL-1): A1 (A1=0.0001 to <1)
- CI50 growth inhibition (OCI-Ly3): S (S=0.01 to <0.5)
- Synergy Score growth inhibition (OCI-Ly3): A2 (A2=1 to <3)
- Synergy Score inhibition (OCI-Ly3): A1 (A1=0.0001 to <1)
- CI50 growth inhibition (U-2932): U (U=0.7 to <1)
- Synergy Score growth inhibition (U-2932): A2 (A2=1 to <3)
- Synergy Score inhibition (U-2932): A1 (A1=0.0001 to <1)
- CI50 growth inhibition (TMD8): U (U=0.7 to <1)
- CI50 inhibition (TMD8): U (U=0.7 to <1)
- Synergy Score growth inhibition (TMD8): A3 (A3=>3)
- Synergy Score inhibition (TMD8): A3 (A3=>3)
- Synergy Score growth inhibition (OCI-Ly7): A1 (A1=0.0001 to <1)
- Synergy Score inhibition (OCI-Ly7): A1 (A1=0.0001 to <1)
- CI50 growth inhibition (SU-DHL-4-epst): S (S=0.01 to <0.5)
- CI50 inhibition (SU-DHL-4-epst): T (T=0.5 to <0.7)
- Synergy Score growth inhibition (SU-DHL-4-epst): A2 (A2=1 to <3)
- Synergy Score inhibition (SU-DHL-4-epst): A2 (A2=1 to <3)
- CI50 growth inhibition (DOHH-2): W (W=≥1)
- CI50 inhibition (DOHH-2): W (W=≥1)
- Synergy Score growth inhibition (DOHH-2): A1 (A1=0.0001 to <1)
- Synergy Score inhibition (DOHH-2): A1 (A1=0.0001 to <1)
- CI50 growth inhibition (Farage): W (W=≥1)
- CI50 inhibition (Farage): W (W=≥1)
- Synergy Score growth inhibition (Farage): A2 (A2=1 to <3)
- Synergy Score inhibition (Farage): A1 (A1=0.0001 to <1)
- CI50 growth inhibition (SU-DHL-10-epst): S (S=0.01 to <0.5)
- CI50 inhibition (SU-DHL-10-epst): S (S=0.01 to <0.5)
- Synergy Score growth inhibition (SU-DHL-10-epst): A3 (A3=>3)
- Synergy Score inhibition (SU-DHL-10-epst): A2 (A2=1 to <3)
- Synergy Score growth inhibition (RL): A1 (A1=0.0001 to <1)
- Synergy Score inhibition (RL): A1 (A1=0.0001 to <1)
- CI50 growth inhibition (KARPAS-422): S (S=0.01 to <0.5)
- CI50 inhibition (KARPAS-422): T (T=0.5 to <0.7)
- Synergy Score growth inhibition (KARPAS-422): A2 (A2=1 to <3)
- Synergy Score inhibition (KARPAS-422): A2 (A2=1 to <3)
- CI50 growth inhibition (WSU-NHL): S (S=0.01 to <0.5)
- CI50 inhibition (WSU-NHL): S (S=0.01 to <0.5)
- Synergy Score growth inhibition (WSU-NHL): A3 (A3=>3)
- Synergy Score inhibition (WSU-NHL): A3 (A3=>3)
- CI50 growth inhibition (KARPAS-299): S (S=0.01 to <0.5)
- Synergy Score growth inhibition (KARPAS-299): A2 (A2=1 to <3)
- Synergy Score inhibition (KARPAS-299): A1 (A1=0.0001 to <1)
- CI50 growth inhibition (GRANTA-519): S (S=0.01 to <0.5)
- Synergy Score growth inhibition (GRANTA-519): A3 (A3=>3)
- Synergy Score inhibition (GRANTA-519): A2 (A2=1 to <3)
- CI50 growth inhibition (Jeko-1): U (U=0.7 to <1)
- Synergy Score growth inhibition (Jeko-1): A1 (A1=0.0001 to <1)
- Synergy Score inhibition (Jeko-1): A1 (A1=0.0001 to <1)
- CI50 growth inhibition (Mino): S (S=0.01 to <0.5)
- CI50 inhibition (Mino): S (S=0.01 to <0.5)
- Synergy Score growth inhibition (Mino): A3 (A3=>3)
- Synergy Score inhibition (Mino): A3 (A3=>3)
- CI50 growth inhibition (NCI-H929): S (S=0.01 to <0.5)
- CI50 inhibition (NCI-H929): U (U=0.7 to <1)
- Synergy Score growth inhibition (NCI-H929): A3 (A3=>3)
- Synergy Score inhibition (NCI-H929): A2 (A2=1 to <3)
- CI50 growth inhibition [1]: U (U=0.7 to <1)
- CI50 inhibition (OMP-2): W (W=≥1)
- Synergy Score growth inhibition (OMP-2): A3 (A3=>3)
- Synergy Score inhibition (OMP-2): A2 (A2=1 to <3)
- CI50 growth inhibition (RPMI-8226): U (U=0.7 to <1)
- Synergy Score growth inhibition (RPMI-8226): A2 (A2=1 to <3)
- Synergy Score inhibition (RPMI-8226): A2 (A2=1 to <3)
